The structures appear in SMILES notation.

The term IC50 denotes the concentration needed to halve the response being measured. A higher IC50 goes with weaker potency. A word on the Dmax: it is the largest share of the target that was removed. A lower Dmax goes with a partial loss of target.

The first experiment concerns the target BCL6 (Homo sapiens (Human), UniProt P41182). Nature of the experiment: Immunofluorescence high content imaging of BCL6 degradation in T47D cells. Type of experiment: cell-based.
Conditions: not given
In a few lines: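 T47D, 3 d compound exposure, 11-pt 3-fold series, top 0.1 or 1 μM final. Fix 4% PFA, Triton permeabilize, anti-BCL6 primary overnight 4 °C, Alexa-488 secondary. High-content imaging 10×, 4 fields/well, top-hat smoothing.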
Regarding `CNC(=O)COc1cc2cc(Nc3nc(N4CCN(C(C)(C)C5CCN(c6cccc(C(=O)NC7CCC(=O)NC7=O)c6F)CC5)CC4)ncc3Cl)ccc2n(C)c1=O` (stereo not shown) [compound 291, 3-[4-(2-{4-[5-chloro-4-({1-methyl-3-[(methylcarbamoyl)methoxy]-2-oxo-1,2-dihydroquinolin-6-yl}amino)pyrimidin-2-yl]piperazin-1-yl}propan-2-yl)piperidin-1-yl]-N-(2,6-dioxopiperidin-3-yl)-2-fluorobenzamide], the IC50 is 10 to 50 nM.

The molecule `CNC(=O)COc1cc2cc(Nc3nc(N4CCC(CN5CCC(c6ccc7c(c6)C(=O)N(C6CCC(=O)NC6=O)C7=O)CC5)CC4)ncc3Cl)ccc2n(C)c1=O` (stereo not shown) [compound 289, 2-{[6-({5-chloro-2-[4-({4-[2-(2,6-dioxopiperidin-3-yl)-1,3-dioxo-2,3-dihydro-1H-isoindol-5-yl]piperidin-1-yl}methyl)piperidin-1-yl]pyrimidin-4-yl}amino)-1-methyl-2-oxo-1,2-dihydroquinolin-3-yl]oxy}-N-methylacetamide] gave an IC50 of 10 to 50 nM.

Turning to `CC(=O)COc1cc2cc(Nc3nc(N4CCC(N5CCC(Oc6ccc7c(c6)C(=O)N(C6CCC(=O)NC6=O)C7=O)C5)CC4)ncc3Cl)ccc2n(C)c1=O` (stereo not shown) [compound 177, 5-((1-(1-(5-chloro-4-((1-methyl-2-oxo-3-(2-oxopropoxy)-1,2-dihydroquinolin-6-yl)amino)pyrimidin-2-yl)piperidin-4-yl)pyrrolidin-3-yl)oxy)-2-(2,6-dioxopiperidin-3-yl)isoindoline-1,3-dione], the IC50 was at least 100 nM.

Still in this experiment, the particulars now being: T47D.
`CNC(=O)COc1cc2cc(Nc3nc(N4CCN(C(C)(C)C5CCN(c6cccc(C(=O)NC7CCC(=O)NC7=O)c6F)CC5)CC4)ncc3Cl)ccc2n(C)c1=O` (stereo not shown) [compound 291, 3-[4-(2-{4-[5-chloro-4-({1-methyl-3-[(methylcarbamoyl)methoxy]-2-oxo-1,2-dihydroquinolin-6-yl}amino)pyrimidin-2-yl]piperazin-1-yl}propan-2-yl)piperidin-1-yl]-N-(2,6-dioxopiperidin-3-yl)-2-fluorobenzamide] displayed a Dmax of at least 70%.

Molecule `CNC(=O)COc1cc2cc(Nc3nc(N4CCC(CN5CCC(c6ccc7c(c6)C(=O)N(C6CCC(=O)NC6=O)C7=O)CC5)CC4)ncc3Cl)ccc2n(C)c1=O` (stereo not shown) [compound 289, 2-{[6-({5-chloro-2-[4-({4-[2-(2,6-dioxopiperidin-3-yl)-1,3-dioxo-2,3-dihydro-1H-isoindol-5-yl]piperidin-1-yl}methyl)piperidin-1-yl]pyrimidin-4-yl}amino)-1-methyl-2-oxo-1,2-dihydroquinolin-3-yl]oxy}-N-methylacetamide] returned a Dmax of at least 70%.

Take `CC(=O)COc1cc2cc(Nc3nc(N4CCC(N5CCC(Oc6ccc7c(c6)C(=O)N(C6CCC(=O)NC6=O)C7=O)C5)CC4)ncc3Cl)ccc2n(C)c1=O` (stereo not shown) [compound 177, 5-((1-(1-(5-chloro-4-((1-methyl-2-oxo-3-(2-oxopropoxy)-1,2-dihydroquinolin-6-yl)amino)pyrimidin-2-yl)piperidin-4-yl)pyrrolidin-3-yl)oxy)-2-(2,6-dioxopiperidin-3-yl)isoindoline-1,3-dione]: the Dmax is below 50%.

Staying with this experiment, now noted: T47D cells.
Turning to `CNC(=O)COc1cc2cc(Nc3nc(N4CCN(CC5CCN(c6cccc(C(=O)NC7CCC(=O)NC7=O)c6OC)CC5)CC4)ncc3Cl)ccc2n(C)c1=O` (stereo not shown) [compound 325, 3-[4-({4-[5-chloro-4-({1-methyl-3-[(methylcarbamoyl)methoxy]-2-oxo-1,2-dihydroquinolin-6-yl}amino)pyrimidin-2-yl]piperazin-1-yl}methyl)piperidin-1-yl]-N-(2,6-dioxopiperidin-3-yl)-2-methoxybenzamide], the Dmax fell in the range of 50 to 70% and the IC50 was below 10 nM.

`CNC(=O)COc1cc2cc(Nc3nc(N4CCN(CC5(F)CCN(c6ccc(C(=O)NC7CCC(=O)NC7=O)c(OC)c6)CC5)CC4)ncc3Cl)ccc2n(C)c1=O` (stereo not shown) [compound 367, 4-[4-({4-[5-chloro-4-({1-methyl-3-[(methylcarbamoyl)methoxy]-2-oxo-1,2-dihydroquinolin-6-yl}amino)pyrimidin-2-yl]piperazin-1-yl}methyl)-4-fluoropiperidin-1-yl]-N-(2,6-dioxopiperidin-3-yl)-2-methoxybenzamide] returned a Dmax of 50 to 70% and an IC50 below 10 nM.

In turn, `CNC(=O)COc1cc2cc(Nc3nc(N4CCC(CN5CCC(c6cc(C(=O)N7CCC7)cc(N7CCC(=O)NC7=O)c6)CC5)CC4)ncc3Cl)ccc2n(C(C)C)c1=O` [compound 428, 2-{[6-({2-[4-({4-[3-(azetidine-1-carbonyl)-5-(2,4-dioxo-1,3-diazinan-1-yl)phenyl]piperidin-1-yl}methyl)piperidin-1-yl]-5-chloropyrimidin-4-yl}amino)-2-oxo-1-(propan-2-yl)-1,2-dihydroquinolin-3-yl]oxy}-N-methylacetamide] came in with an IC50 of at least 100 nM.

As for `CNC(=O)COc1cc2cc(Nc3nc(N4CCC(CN5[C@H](C)CN(c6cccc(C(=O)NC7CCC(=O)NC7=O)c6F)C[C@@H]5C)CC4)ncc3Cl)ccc2n(C)c1=O` (mixture of isomers) [compound 370, rac-3-[(3R,5S)-4-({1-[5-chloro-4-({1-methyl-3-[(methylcarbamoyl)methoxy]-2-oxo-1,2-dihydroquinolin-6-yl}amino)pyrimidin-2-yl]piperidin-4-yl}methyl)-3,5-dimethylpiperazin-1-yl]-N-(2,6-dioxopiperidin-3-yl)-2-fluorobenzamide], the Dmax was 50 to 70% and the IC50 was in the range of 10 to 50 nM.

For the molecule `CNC(=O)COc1cc2cc(Nc3nc(N4CCN(CC5CCCN5c5ccc6c(c5)C(=O)N(C5CCC(=O)NC5=O)C6=O)CC4)ncc3Cl)ccc2n(C(C)C)c1=O` (stereo not shown) [compound 380, 2-{[6-({5-chloro-2-[4-({1-[2-(2,6-dioxopiperidin-3-yl)-1,3-dioxo-2,3-dihydro-1H-isoindol-5-yl]pyrrolidin-2-yl}methyl)piperazin-1-yl]pyrimidin-4-yl}amino)-2-oxo-1-(propan-2-yl)-1,2-dihydroquinolin-3-yl]oxy}-N-methylacetamide], the Dmax is below 50% and the half-inhibitory concentration (IC50) lay within 10 to 50 nM.

As to `CNC(=O)COc1cc2cc(Nc3nc(N4CCN(CC5CCC6(CC5)CN(c5ccc(OC)c7c5C(=O)N(C5CCC(=O)NC5=O)C7=O)C6)CC4)ncc3Cl)ccc2n(C(C)C)c1=O` (stereo not shown) [compound 411, 2-{[6-({5-chloro-2-[4-({2-[2-(2,6-dioxopiperidin-3-yl)-7-methoxy-1,3-dioxo-2,3-dihydro-1H-isoindol-4-yl]-2-azaspiro[3.5]nonan-7-yl}methyl)piperazin-1-yl]pyrimidin-4-yl}amino)-2-oxo-1-(propan-2-yl)-1,2-dihydroquinolin-3-yl]oxy}-N-methylacetamide], the Dmax is below 50% and the IC50 is below 10 nM.

Molecule `CCn1c(=O)c(OCC(=O)NC)cc2cc(Nc3nc(N4CCC(OCC5CCN(c6cccc7c6C(=O)N(C6CCC(=O)NC6=O)C7=O)CC5)CC4)ncc3Cl)ccc21` (stereo not shown) [compound 330, 2-{[6-({5-chloro-2-[4-({1-[2-(2,6-dioxopiperidin-3-yl)-1,3-dioxo-2,3-dihydro-1H-isoindol-4-yl]piperidin-4-yl}methoxy)piperidin-1-yl]pyrimidin-4-yl}amino)-1-ethyl-2-oxo-1,2-dihydroquinolin-3-yl]oxy}-N-methylacetamide] registered a Dmax of 50 to 70% and a concentration for half-maximal inhibition (IC50) below 10 nM.

On to `CCn1c(=O)c(OCC(=O)NC)cc2cc(Nc3nc(N4CCC(COC5CCN(c6ccc7c(c6)C(=O)N(C6CCC(=O)NC6=O)C7=O)CC5)CC4)ncc3Cl)ccc21` (stereo not shown) [compound 331, 2-({6-[(5-chloro-2-{4-[({1-[2-(2,6-dioxopiperidin-3-yl)-1,3-dioxo-2,3-dihydro-1H-isoindol-5-yl]piperidin-4-yl}oxy)methyl]piperidin-1-yl}pyrimidin-4-yl)amino]-1-ethyl-2-oxo-1,2-dihydroquinolin-3-yl}oxy)-N-methylacetamide], for which the Dmax is below 50% and the IC50 is below 10 nM.

In turn, `CNC(=O)COc1cc2cc(Nc3nc(N4CCC(CN5CCC6(CC5)CN(c5ccc(C(=O)NC7CCC(=O)NC7=O)c(OC)c5)C6)CC4)ncc3Cl)ccc2n(C(C)C)c1=O` (stereo not shown) [compound 425, 4-[7-({1-[5-chloro-4-({3-[(methylcarbamoyl)methoxy]-2-oxo-1-(propan-2-yl)-1,2-dihydroquinolin-6-yl}amino)pyrimidin-2-yl]piperidin-4-yl}methyl)-2,7-diazaspiro[3.5]nonan-2-yl]-N-(2,6-dioxopiperidin-3-yl)-2-methoxybenzamide] came in with a Dmax of 50 to 70% and an IC50 below 10 nM.

Staying with this experiment, now noted: class symbols A-D, read-out: EC50 (nM)*.
With `CNC(=O)COc1cc2cc(Nc3nc(N4CCC(OCCOCCOCCNc5cccc6c5C(=O)N(C5CCC(=O)NC5=O)C6=O)CC4)ncc3Cl)ccc2n(C)c1=O` (stereo not shown) [compound 57, 2-((6-((5-chloro-2-(4-(2-(2-(2-((2-(2,6-dioxopiperidin-3-yl)-1,3-dioxoisoindolin-4-yl)amino)ethoxy)ethoxy)ethoxy)piperidin-1-yl)pyrimidin-4-yl)amino)-1-methyl-2-oxo-1,2-dihydroquinolin-3-yl)oxy)-N-methylacetamide], the DC50 is above 100 nM.

`CNC(=O)COc1cc2cc(Nc3nc(N4CCC(OCCCCOc5ccc6c(c5)CN(C5CCC(=O)NC5=O)C6=O)CC4)ncc3Cl)ccc2n(C)c1=O` (stereo not shown) [compound 142, 2-((6-((5-chloro-2-(4-(4-((2-(2,6-dioxopiperidin-3-yl)-1-oxoisoindolin-5-yl)oxy)butoxy)piperidin-1-yl)pyrimidin-4-yl)amino)-1-methyl-2-oxo-1,2-dihydroquinolin-3-yl)oxy)-N-methylacetamide]: the DC50 was above 100 nM.

For `CNC(=O)COc1cc2cc(Nc3nc(N4CCC(OCCOCCOCCOCCCOc5ccccc5-c5ccc6c(c5)CN(C5CCC(=O)NC5=O)C6=O)CC4)ncc3Cl)ccc2n(C)c1=O` (stereo not shown) [compound 93, 2-((6-((5-chloro-2-(4-(2-(2-(2-(3-(2-(2-(2,6-dioxopiperidin-3-yl)-1-oxoisoindolin-5-yl)phenoxy)propoxy)ethoxy)ethoxy)ethoxy)piperidin-1-yl)pyrimidin-4-yl)amino)-1-methyl-2-oxo-1,2-dihydroquinolin-3-yl)oxy)-N-methylacetamide], the DC50 was above 100 nM.

Take `CNC(=O)COc1cc2cc(Nc3nc(N4CCC(c5cn(CCOCCOCCOCCOCCOc6ccc7c(c6)C(=O)N(C6CCC(=O)NC6=O)C7=O)nn5)CC4)ncc3Cl)ccc2n(C)c1=O` (stereo not shown) [compound 121, 2-((6-((5-chloro-2-(4-(1-(14-((2-(2,6-dioxopiperidin-3-yl)-1,3-dioxoisoindolin-5-yl)oxy)-3,6,9,12-tetraoxatetradecyl)-1H-1,2,3-triazol-4-yl)piperidin-1-yl)pyrimidin-4-yl)amino)-1-methyl-2-oxo-1,2-dihydroquinolin-3-yl)oxy)-N-methylacetamide]: the DC50 fell in the range of 50 to 100 nM.

With `CNC(=O)COc1cc2cc(Nc3nc(N4CCC(OCCOCCOCCOCCOCCOCC(=O)N[C@H](C(=O)N5C[C@H](O)C[C@H]5C(=O)NCc5ccc(-c6scnc6C)cc5)C(C)(C)C)CC4)ncc3Cl)ccc2n(C)c1=O` [compound 82, (2S,4R)-1-((S)-2-(tert-butyl)-20-((1-(5-chloro-4-((1-methyl-3-(2-(methylamino)-2-oxoethoxy)-2-oxo-1,2-dihydroquinolin-6-yl)amino)pyrimidin-2-yl)piperidin-4-yl)oxy)-4-oxo-6,9,12,15,18-pentaoxa-3-azaicosanoyl)-4-hydroxy-N-(4-(4-methylthiazol-5-yl)benzyl)pyrrolidine-2-carboxamide], the DC50 lay within 50 to 100 nM.

These data come from patent publication US12310975B2, “Modulators of BCL6 proteolysis and associated methods of use” (Arvinas Operations, Inc., priority 2019, dated 2025).
